From US8785488B2 (Exelixis Patent Company LLC, priority 2009, dated 2014) come the findings set out here.

The target of one assay is T1, human TGR5 (h-TGR5) (Homo sapiens, UniProt Q8TDU6).
T1 construct: expressed in transfected cells
T1 sequence (Q8TDU6 1-330): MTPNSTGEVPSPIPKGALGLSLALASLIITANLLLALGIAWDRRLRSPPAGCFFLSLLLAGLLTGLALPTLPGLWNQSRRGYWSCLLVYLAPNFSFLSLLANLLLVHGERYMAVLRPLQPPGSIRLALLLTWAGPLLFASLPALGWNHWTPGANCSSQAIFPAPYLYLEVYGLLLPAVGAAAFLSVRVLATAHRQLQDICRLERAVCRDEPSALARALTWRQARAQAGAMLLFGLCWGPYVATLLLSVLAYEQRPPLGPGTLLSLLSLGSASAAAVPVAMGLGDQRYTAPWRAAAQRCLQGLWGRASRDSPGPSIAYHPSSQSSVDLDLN
As to the kind of experiment: TGR5/CRE-Luciferiase Assay (HEK 293 hTGR5/CRE-Luc cells). It counts as cell-based. The method, boiled down:
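HEK293 cells stably carrying hTGR5 and a CRE-luciferase reporter were exposed to serially diluted compounds (diluted in DMEM with 5% DMSO) for 6 h. Cells were then lysed in luciferase buffer, luminescence was read, and EC50 values were derived from dose-response curves.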

The target of another assay is T2, h-TGR5 (Homo sapiens, UniProt Q8TDU6).
T2 construct: expressed in transfected cells
T2 sequence (Q8TDU6 1-330): T1 sequence (Q8TDU6 1-330)
Description: TGR5 cAMP Assay using Cisbio cAMP Dynamic2 htrf kit (hTGR5CRE-luc HEK 293 cells). The class given is cell-based. In short, it runs like this:
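[…], 4000 hTGR5CRE-luc HEK 293 cells per well, with 0.5 mM IBMX and d2-cAMP, were incubated 30 min at room temperature with compounds in 8-point half-log series, in quadruplicate.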

Where [1] appears, read: h-TGR5 CRE-Luc EC50, Table 1, read-out: CRE-Luc (EC50).
Where [2] appears, read: h-TGR5 cAMP EC50, Table 1, read-out: cAMP (EC50).
[3] abbreviates: HEK 293 hTGR5/CRE-Luc cells, 6 hours incubation, luciferase activity, Table 2, read-out: h-TGR5CRE-Luc EC50 (CRE-Luc).
The mark [4] stands for this setting: hTGR5CRE-luc HEK 293 cells, htrf cAMP, Table 2, read-out: h-TGR5 cAMP EC50 (cAMP).

Each structure is given as a SMILES string. Like-named read-outs stand apart in the source and are kept apart here. A value given as a limit tells only on which side of the number the result lay.

Usually EC50 stands for the concentration at which the effect is half-maximal. As for `CC(C)(c1ccc(Cl)c(Cl)c1)c1cnc(SCc2ccc(S(N)(=O)=O)cc2Cl)n1-c1ccc(F)cc1` [3-chloro-4-[({5-[1-(3,4-dichlorophenyl)-1-methylethyl]-1-(4-fluorophenyl)-1H-imidazol-2-yl}thio)methyl]benzenesulfonamide], the 50% effective concentration (EC50) on human TGR5 (h-TGR5) (setting [1]) and at h-TGR5 (setting [2]) was 100 to 1000 nM each time.
Turning to `COc1cc(-n2c(C(C)(C)c3ccc(S(N)(=O)=O)c(Cl)c3)cnc2SCc2ccc(S(=O)(=O)NC(=O)NN3CCCCC3)cc2Cl)ccc1F` [4-{[(5-{1-[4-(aminosulfonyl)-3-chlorophenyl]-1-methylethyl}-1-[4-fluoro-3-(methyloxy)phenyl]-1H-imidazol-2-yl)thio]methyl}-3-chloro-N-[(piperidin-1-ylamino)carbonyl]benzenesulfonamide], the half-maximal effective concentration (EC50) at human TGR5 (h-TGR5) (setting [1]) and on h-TGR5 (setting [2]) was 100 to 1000 nM throughout.
Take `COc1cc(-n2c(C(C)(C)c3ccc(F)c(F)c3)cnc2SCc2ccc(S(=O)(=O)NC(=O)NN3CCCC3)cc2Cl)ccc1F` [3-chloro-4-[({5-[1-(3,4-difluorophenyl)-1-methylethyl]-1-[4-fluoro-3-(methyloxy)phenyl]-1H-imidazol-2-yl}thio)methyl]-N-[(pyrrolidin-1-ylamino)carbonyl]benzenesulfonamide]: the EC50 on human TGR5 (h-TGR5) (setting [1]) and at h-TGR5 (setting [2]) was 100 to 1000 nM throughout.
On to `COc1cc(-n2c(C(C)(C)c3ccc(Cl)c(Cl)c3)cnc2SCc2c(F)cc(C(=O)NCCC(=O)O)cc2F)ccc1F` [N-({4-[({5-[1-(3,4-dichlorophenyl)-1-methylethyl]-1-[4-fluoro-3-(methyloxy)phenyl]-1H-imidazol-2-yl}thio)methyl]-3,5-difluorophenyl}carbonyl)-beta-alanine], for which the concentration giving a half-maximal response (EC50) on human TGR5 (h-TGR5) (setting [1]) and on h-TGR5 (setting [2]) was under 100 nM in each case.
In the case of `CCOC(=O)NS(=O)(=O)c1ccc(CSc2ncc(C(C)(C)c3ccc(S(N)(=O)=O)c(Cl)c3)n2-c2ccc(F)c(OC)c2)c(Cl)c1` [ethyl [(4-{[(5-{1-[4-(aminosulfonyl)-3-chlorophenyl]-1-methylethyl}-1-[4-fluoro-3-(methyloxy)phenyl]-1H-imidazol-2-yl)thio]methyl}-3-chlorophenyl)sulfonyl]carbamate], the EC50 at human TGR5 (h-TGR5) (setting [1]) and at h-TGR5 (setting [2]) was under 100 nM in each case.
For the molecule `CC(C)(O)CNC(=O)c1ccc(CSc2ncc(C(C)(C)c3ccc(Cl)c(Cl)c3)n2-c2ccc(F)cc2)c(F)c1` [4-[({5-[1-(3,4-dichlorophenyl)-1-methylethyl]-1-(4-fluorophenyl)-1H-imidazol-2-yl}thio)methyl]-3-fluoro-N-(2-hydroxy-2-methylpropyl)benzamide], the half-maximal effective concentration (EC50) on human TGR5 (h-TGR5) (setting [1]) and on h-TGR5 (setting [2]) was 100 to 1000 nM each time.
As to `CC(C)NC(=O)NS(=O)(=O)c1ccc(CSc2ncc(C(C)(C)c3ccc(F)c(F)c3)n2-c2ccc(F)cc2)c(Cl)c1` [3-chloro-4-[({5-[1-(3,4-difluorophenyl)-1-methylethyl]-1-(4-fluorophenyl)-1H-imidazol-2-yl}thio)methyl]-N-{[(1-methylethyl)amino]carbonyl}benzenesulfonamide], the half-maximal effective concentration (EC50) on human TGR5 (h-TGR5) (setting [1]) and at h-TGR5 (setting [2]) was 100 to 1000 nM throughout.
As for `CC(C)(c1ccc(Cl)c(Cl)c1)c1c(Cl)nc(SCc2ccc(-c3nnn[nH]3)c(Cl)c2)n1-c1ccc(F)cc1` [5-{2-chloro-4-[({4-chloro-5-[1-(3,4-dichlorophenyl)-1-methylethyl]-1-(4-fluorophenyl)-1H-imidazol-2-yl}thio)methyl]phenyl}-1H-tetrazole], the EC50 on human TGR5 (h-TGR5) (setting [1]) was 100 to 1000 nM; on h-TGR5 (setting [2]), 1000 to 10000 nM.
As for `CC(C)(c1ccc(Cl)c(Cl)c1)c1cnc(SCc2ccc(S(N)(=O)=O)cc2F)n1-c1ccc(F)cc1` [4-[({5-[1-(3,4-dichlorophenyl)-1-methylethyl]-1-(4-fluorophenyl)-1H-imidazol-2-yl}thio)methyl]-3-fluorobenzenesulfonamide], the EC50 at human TGR5 (h-TGR5) (setting [1]) and at h-TGR5 (setting [2]) was 100 to 1000 nM throughout.
Regarding `COc1cc(C(C)(C)c2cnc(SCc3c(F)cc(-c4noc(=O)[nH]4)cc3F)n2-c2ccc(F)cc2)ccc1Cl` [3-[4-({[5-{1-[4-chloro-3-(methyloxy)phenyl]-1-methylethyl}-1-(4-fluorophenyl)-1H-imidazol-2-yl]thio}methyl)-3,5-difluorophenyl]-1,2,4-oxadiazol-5(4H)-one], the EC50 at human TGR5 (h-TGR5) (setting [1]) and on h-TGR5 (setting [2]) was under 100 nM in each case.
For the molecule `COc1cc(C(C)(C)c2cnc(NCc3ccc(Cl)cc3F)n2-c2ccc(F)cc2)ccc1Cl` [N-[(4-chloro-2-fluorophenyl)methyl]-5-{1-[4-chloro-3-(methyloxy)phenyl]-1-methylethyl}-1-(4-fluorophenyl)-1H-imidazol-2-amine], the half-maximal effective concentration (EC50) on human TGR5 (h-TGR5) (setting [1]) and on h-TGR5 (setting [2]) was 1000 to 10000 nM throughout.
In the case of `COc1cc(C(C)(C)c2cnc(SCc3c(F)cc(C(=O)NO)cc3F)n2-c2ccc(F)cc2)ccc1Cl` [4-({[5-{1-[4-chloro-3-(methyloxy)phenyl]-1-methylethyl}-1-(4-fluorophenyl)-1H-imidazol-2-yl]thio}methyl)-3,5-difluoro-N-hydroxybenzamide], the 50% effective concentration (EC50) at human TGR5 (h-TGR5) (setting [1]) and on h-TGR5 (setting [2]) was under 100 nM each time.
Regarding `COc1cc(C(C)(C)c2cnc(SCc3c(F)cc(C(=O)O)cc3Cl)n2-c2ccc(F)cn2)ccc1Cl` [3-chloro-4-({[5-{1-[4-chloro-3-(methyloxy)phenyl]-1-methylethyl}-1-(5-fluoropyridin-2-yl)-1H-imidazol-2-yl]thio}methyl)-5-fluorobenzoic acid], the EC50 on human TGR5 (h-TGR5) (setting [1]) and at h-TGR5 (setting [2]) was under 100 nM throughout.
`COC(=O)c1cc(CSc2ncc(C(C)(C)c3ccc(Cl)c(Cl)c3)n2-c2ccc(F)c(OC)c2)ccc1C#CCNC(=N)N` [methyl 2-(3-{[amino(imino)methyl]amino}prop-1-yn-1-yl)-5-[({5-[1-(3,4-dichlorophenyl)-1-methylethyl]-1-[4-fluoro-3-(methyloxy)phenyl]-1H-imidazol-2-yl}thio)methyl]benzoate]: the EC50 on human TGR5 (h-TGR5) (setting [1]) and on h-TGR5 (setting [2]) was 100 to 1000 nM in each case.
As for `CC(C)(c1ccc(Cl)c(Cl)c1)c1nnc(SCc2c(F)cc(C(=O)O)cc2F)n1-c1ccc(F)cc1` [Example 48], the concentration for a half-maximal effect (EC50) on human TGR5 (h-TGR5) (setting [3]) and at h-TGR5 (setting [4]) was 100 to 1000 nM each time.
In the case of `COc1cc(-n2c(SCc3ccc(Cl)c(-c4nnn[nH]4)c3)nnc2C(C)(C)c2ccc(Cl)c(OC)c2)ccc1F` [Example 49], the half-maximal effective concentration (EC50) on human TGR5 (h-TGR5) (setting [3]) is under 100 nM; on h-TGR5 (setting [4]), 100 to 1000 nM.
In the case of `O=C(O)c1cc(F)c(CSc2ncc(C3(c4ccc(Cl)c(Cl)c4)CC3)n2-c2ccc(F)cc2)c(F)c1` [4-[({5-[1-(3,4-dichlorophenyl)cyclopropyl]-1-(4-fluorophenyl)-1H-imidazol-2-yl}thio)methyl]-3,5-difluorobenzoic acid], the concentration for a half-maximal effect (EC50) at human TGR5 (h-TGR5) (setting [1]) and at h-TGR5 (setting [2]) was 100 to 1000 nM throughout.
For `COc1cc(C(C)(C)c2cnc(SCC3CCN(c4nnn[nH]4)CC3)n2-c2ccc(F)cc2)ccc1Cl` [4-({[5-{1-[4-chloro-3-(methyloxy)phenyl]-1-methylethyl}-1-(4-fluorophenyl)-1H-imidazol-2-yl]thio}methyl)-1-(1H-tetrazol-5-yl)piperidine], the half-maximal effective concentration (EC50) at human TGR5 (h-TGR5) (setting [1]) was under 100 nM; on h-TGR5 (setting [2]), 100 to 1000 nM.
The corresponding values for `COc1cc(C(C)(C)c2cnc(SCc3c(F)cc(CCCNC(=N)N)cc3F)n2-c2ccc(F)cc2)ccc1Cl` [1-{3-[4-({[5-{1-[4-chloro-3-(methyloxy)phenyl]-1-methylethyl}-1-(4-fluorophenyl)-1H-imidazol-2-yl]thio}methyl)-3,5-difluorophenyl]propyl}guanidine] are under 100 nM and under 100 nM.
For `COc1cc(C(C)(C)c2cnc(SCc3c(F)cc(S(=O)(=O)NC(=O)NN4CCOCC4)cc3F)n2-c2ccc(F)cc2)ccc1Cl` [4-({[5-{1-[4-chloro-3-(methyloxy)phenyl]-1-methylethyl}-1-(4-fluorophenyl)-1H-imidazol-2-yl]thio}methyl)-3,5-difluoro-N-[(morpholin-4-ylamino)carbonyl]benzenesulfonamide] the same measures were under 100 nM and under 100 nM.
Take `CC(C)(c1ccc(Cl)c(Cl)c1)c1cnc(SCc2ccc(F)cc2Cl)n1-c1ccc(F)c(CO)c1` [[5-(2-{[(2-chloro-4-fluorophenyl)methyl]thio}-5-[1-(3,4-dichlorophenyl)-1-methylethyl]-1H-imidazol-1-yl)-2-fluorophenyl]methanol]: the EC50 on human TGR5 (h-TGR5) (setting [1]) and on h-TGR5 (setting [2]) was 100 to 1000 nM throughout.
For `CC(C)(c1ccc2nccnc2c1)c1nnc(SCc2c(F)cccc2Cl)n1-c1ccc(F)cc1` [Example 45], the EC50 at human TGR5 (h-TGR5) (setting [3]) and on h-TGR5 (setting [4]) was under 100 nM in each case.
As to `COc1cc(C(C)(C)c2cnc(SCc3ccc(C(=O)NCCC(=O)O)cc3F)n2-c2ccc(F)cc2)ccc1Cl` [N-{[4-({[5-{1-[4-chloro-3-(methyloxy)phenyl]-1-methylethyl}-1-(4-fluorophenyl)-1H-imidazol-2-yl]thio}methyl)-3-fluorophenyl]carbonyl}-beta-alanine], the half-maximal effective concentration (EC50) at human TGR5 (h-TGR5) (setting [1]) and on h-TGR5 (setting [2]) was under 100 nM each time.
